These are literature values, as cited in patent publication US20210319872A1, “DRUG AND DEVICE COMBINATION PRODUCTS WITH IMPROVED SAFETY AND EFFICACY PROFILES” (priority 2016, published 2021).

For this series the following is noted: in vivo.

Each structure is given as a SMILES string. Some results are limits rather than exact numbers.

In the case of `Cc1nnc2n1-c1ccc(Cl)cc1C(c1ccccc1)=NC2` [Xanax (alprazolam)], the Cognitive disorder entry was “Neurologic: Cognitive disorder (28.8%), Confusion (1.5% to”; the Confusion entry is reported as “Neurologic: Cognitive disorder (28.8%), Confusion (1.5% to”; the Constipation entry is “Gastrointestinal: Constipation (8.1% to 26.2%), Reduced salivation”; the Decrease in appetite result was “Endocrine metabolic: Decrease in appetite (7.3% to 27.8%),”. Besides, the Fatigue result is given as “Other: Fatigue (13.9% to 48.6%)”; the Increased appetite entry was “Increased appetite (7% to 32.7%), Weight increase (2.7% to 27.2%)”; the Memory impairment is listed as 40.1%), Lightheadedness (20.8%), Memory impairment (15.4% to; the Reduced libido entry was “Reproductive: Reduced libido (6% to 14.4%)”. The Reduced salivation entry is reported as “(32.8%), Xerostomia (10.2% to 14.7%)”; the Sedated is listed as 33.1%), Sedated (45.2%), Somnolence (23% to 76.8%); the “Serious side effect, Dermatologic” value is “Dermatologic: Stevens-Johnson syndrome”; the Somnolence is 33.1%), Sedated (45.2%), Somnolence (23% to 76.8%). Also, the Weight increase entry is given as “Increased appetite (7% to 32.7%), Weight increase (2.7% to 27.2%)” and the Xerostomia entry was “(32.8%), Xerostomia (10.2% to 14.7%)”.

Consider `CN1CCN(C(=O)O[C@H]2c3nccnc3C(=O)N2c2ccc(Cl)cn2)CC1` [Lunesta (eszopiclone)], for which the Angioedema result is “Other: Angioedema (rare)”; the Disorder of taste entry is given as “Gastrointestinal: Disorder of taste (8% to 34%), Vomiting (3%)”; the Dizziness entry is listed as “Neurologic: Dizziness (1% to 7%), Headache (13% to 21%),”; the Headache entry is “Neurologic: Dizziness (1% to 7%), Headache (13% to 21%),”. For the same molecule, the Migraine entry is recorded as “Migraine (1% or greater)”; the Respiratory tract infection entry is “Respiratory: Respiratory tract infection (5% to 10%)”; the Vomiting entry is reported as “Gastrointestinal: Disorder of taste (8% to 34%), Vomiting (3%)”.

For `O=C1CN=C(c2ccccc2Cl)c2cc([N+](=O)[O-])ccc2N1` [Klonopin (clonazepam)], the Ataxia result was “Neurologic: Ataxia (5% to 30%), Coordination problem (6%),”; the Coordination problem result was “Neurologic: Ataxia (5% to 30%), Coordination problem (6%),”; the Depression entry is given as “Psychiatric: Depression (7%), Suicidal thoughts”; the Dizziness entry is “Dizziness (8%), Somnolence (37% to 50%)”. For the same molecule, the Fatigue entry is given as “Other: Fatigue (7%)”; the Problem behavior entry was “Psychiatric: Problem behavior (25%)”; the “Serious side effect, Psychiatric” value is listed as “Psychiatric: Depression (7%), Suicidal thoughts”; the “Serious side effect, Respiratory” value is “Respiratory: Respiratory depression”. Also, the Somnolence result was “Dizziness (8%), Somnolence (37% to 50%)” and the Upper respiratory infection entry is “Respiratory: Upper respiratory infection (8%)”.

As for `Cc1ccc(-c2nc3ccc(C)cn3c2CC(=O)N(C)C)cc1` [Ambien (zolpidem)], the Allergic reaction result is recorded as “Immunologic: Allergic reaction (4%)”; the Anaphylaxis result is recorded as “Immunologic: Anaphylaxis (rare)”; the Angioedema entry is on record as “Other: Angioedema (rare)”; the Chest pain result is reported as “Cardiovascular: Chest pain (1%), Tachycardia (0.1% to 1%)”. For the same molecule, the Diarrhea entry is “Gastrointestinal: Diarrhea (1% to 3%), Nausea (1% to 7%)”; the Dizziness result was “Neurologic: Dizziness (1% to 23.5%), Drugged state (3%),”; the Drugged state result is “Neurologic: Dizziness (1% to 23.5%), Drugged state (3%),”; the Fatigue entry was “Other: Fatigue (0.1% to 3%)”. The Headache result is reported as “Headache (1% to 19%), Somnolence (2% to 15%)”; the Nausea result is listed as “Gastrointestinal: Diarrhea (1% to 3%), Nausea (1% to 7%)”; the “Serious side effect, Neurologic” value is “Neurologic: Hepatic encephalopathy”; the Somnolence result is “Headache (1% to 19%), Somnolence (2% to 15%)”. Further, the Tachycardia result is given as “Cardiovascular: Chest pain (1%), Tachycardia (0.1% to 1%)” and the Visual disturbance result is given as “Ophthalmic: Visual disturbance (3%)”.

With `CNCCC=C1c2ccccc2CCc2ccccc21` [Nortriptyline (Pamelor)], the “Common side effects, listed without incidence” value is on record as “Gastrointestinal: Constipation”.

On to `C[C@H](O)[C@H](O)[C@H]1CNc2[nH]c(N)nc(=O)c2N1.Cl.Cl` [Kuvan], for which the Cough entry was “Respiratory: Cough (4% or more), Nasal congestion (4% or more),”; the Diarrhea result is given as “Gastrointestinal: Diarrhea (4% or more), Vomiting (4% or more)”; the Headache result is reported as “Neurologic: Headache (4% or greater)”; the Nasal congestion entry is on record as “Respiratory: Cough (4% or more), Nasal congestion (4% or more),”. Moreover, the Nasal discharge result is “Nasal discharge (4% or more), Pain in throat (4% or more), Upper”; the Pain in throat entry is recorded as “Nasal discharge (4% or more), Pain in throat (4% or more), Upper”; the “Serious side effect, Cardiovascular” value was “Cardiovascular: Myocardial infarction”; the “Serious side effect, Gastrointestinal” value is given as “Gastrointestinal: Gastrointestinal hemorrhage”. For the same molecule, the “Serious side effect, Hematologic” value was “Hematologic: Hemorrhage, Post-procedural”; the “Serious side effect, Neurologic” value is “Neurologic: Seizure”; the “Serious side effect, Respiratory” value is reported as “Respiratory: Respiratory failure”; the Upper respiratory infection entry is recorded as “respiratory infection (17%)”. Also, the Vomiting result is “Gastrointestinal: Diarrhea (4% or more), Vomiting (4% or more)”.

For the molecule `CC1Cc2ccccc2N1NC(=O)c1ccc(Cl)c(S(N)(=O)=O)c1` (stereo not drawn) [Indapamide (Lozol)], the “Dizziness (incidence)” value is reported as “Neurologic: Asthenia, Dizziness (Greater than or equal to 5%),”; the “Headache (incidence)” value was “Headache (Greater than or equal to 5%), Lethargy, Numbness”; the “Hypokalemia (incidence)” value is listed as “Endocrine metabolic: Hypokalemia (3% to 7%)”.

As for `CN1CC[C@]23c4c5ccc(O)c4O[C@H]2C(=O)CC[C@@]3(O)[C@H]1C5` [Oxymorphone, reference compound], the Abdominal pain entry is “Gastrointestinal: Abdominal pain (1% to less than 10%),”; the Bowel obstruction result is “Gastrointestinal: Bowel obstruction (less than 1%)”; the Constipation entry is “Constipation (4.1% to 27.6%), Nausea (2.9% to 33.1%), Vomiting”; the Fatigue result is “Other: Fatigue (1% to less than 10%), Fever (1% to 14.2%)”. In addition, the Fever result is recorded as “Other: Fatigue (1% to less than 10%), Fever (1% to 14.2%)”; the Headache was 17%), Headache (4% to 12%), Somnolence (2% to 19%); the Hypotension result was “Cardiovascular: Hypotension (less than 10%)”; the Hypoxia is less than 10%). The Nausea result is “Constipation (4.1% to 27.6%), Nausea (2.9% to 33.1%), Vomiting”; the Pruritus result is on record as “Dermatologic: Pruritus (less than or equal to 15.2%), Sweating”; the “Serious side effect, Neurologic” value is recorded as “Neurologic: Coma”; the “Serious side effect, Respiratory” value is reported as “Respiratory: Respiratory depression”. The Somnolence is recorded as 17%), Headache (4% to 12%), Somnolence (2% to 19%); the Sweating symptom entry is “symptom (1% to less than 10%)”; the Vomiting entry is listed as “(less than or equal to 15.6%), Xerostomia (1% to less than 10%)”; the Xerostomia result was “(less than or equal to 15.6%), Xerostomia (1% to less than 10%)”.
